From patent US6248739A, “Quinolinecarboxamides as antiviral agents” (Pharmacia & Upjohn Company, priority 1999, dated 2001) come the findings set out here.

Each structure is given as a SMILES string.

The term IC50 denotes the midpoint of a concentration-inhibition curve.

T1 sequence (P08546 whole entry): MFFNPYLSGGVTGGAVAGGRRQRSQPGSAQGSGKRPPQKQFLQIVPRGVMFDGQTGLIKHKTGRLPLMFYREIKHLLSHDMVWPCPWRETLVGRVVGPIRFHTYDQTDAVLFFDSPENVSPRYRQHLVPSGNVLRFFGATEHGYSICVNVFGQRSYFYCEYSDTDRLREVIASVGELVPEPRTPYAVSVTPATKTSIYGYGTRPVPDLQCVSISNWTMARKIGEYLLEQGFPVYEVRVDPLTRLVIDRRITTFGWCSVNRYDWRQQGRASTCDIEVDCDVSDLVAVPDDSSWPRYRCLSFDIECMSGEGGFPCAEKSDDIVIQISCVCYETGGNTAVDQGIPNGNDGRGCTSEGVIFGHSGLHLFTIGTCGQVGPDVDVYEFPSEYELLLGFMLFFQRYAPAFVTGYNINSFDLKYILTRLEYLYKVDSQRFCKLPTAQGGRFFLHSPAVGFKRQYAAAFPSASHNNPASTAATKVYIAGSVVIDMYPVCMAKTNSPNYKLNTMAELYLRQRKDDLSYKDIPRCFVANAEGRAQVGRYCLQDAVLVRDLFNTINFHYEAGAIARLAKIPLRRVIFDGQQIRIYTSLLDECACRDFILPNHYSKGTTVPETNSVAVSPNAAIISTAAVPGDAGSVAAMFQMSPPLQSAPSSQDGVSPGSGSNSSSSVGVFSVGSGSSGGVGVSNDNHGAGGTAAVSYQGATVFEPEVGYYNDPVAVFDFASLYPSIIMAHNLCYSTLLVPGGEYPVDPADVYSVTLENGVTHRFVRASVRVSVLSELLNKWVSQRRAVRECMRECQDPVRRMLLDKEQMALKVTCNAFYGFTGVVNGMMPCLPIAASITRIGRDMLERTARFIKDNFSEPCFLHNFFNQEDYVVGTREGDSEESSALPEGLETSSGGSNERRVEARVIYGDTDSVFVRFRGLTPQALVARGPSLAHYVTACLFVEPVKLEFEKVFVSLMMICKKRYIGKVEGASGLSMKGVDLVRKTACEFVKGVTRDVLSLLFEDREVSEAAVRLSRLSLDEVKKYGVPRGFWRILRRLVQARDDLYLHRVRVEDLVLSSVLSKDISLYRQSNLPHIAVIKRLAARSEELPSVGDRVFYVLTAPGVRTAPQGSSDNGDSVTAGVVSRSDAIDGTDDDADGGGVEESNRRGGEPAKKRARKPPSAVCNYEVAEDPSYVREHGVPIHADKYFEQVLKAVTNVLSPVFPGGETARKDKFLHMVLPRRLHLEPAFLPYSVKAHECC

This experiment addresses T1, HCMV polymerase (Human cytomegalovirus, UniProt P08546).
T1 construct: made in house; host or cells: recombinant baculovirus-infected SF-9 insect cells
Nature of the experiment: biochemical. Particulars: HCMV polymerase; SPA; modified assay: compounds in 100% DMSO, 4.5 mM DTT. The method, then: The HCMV polymerase assay is performed using a scintillation proximity assay (SPA) as described in several references, such as N. D. Cook, et al., Pharmaceutical Manufacturing International, pages 49-53 (1992); K. Takeuchi, Laboratory Practice, September issue (1992); U.S. Pat. No. 4,568,649 (1986); which are incorporated by reference herein. Reactions are performed in 96-well plates. The assay is conducted in 100 μl volume with 5.4 mM HEPES (pH 7.5), 11.7 mM KCl, 4.5 mM MgCl2, 0.36 mg/ml BSA, and 90 nM ^3 H-dTTP. Assays are run with and without CHAPS, (3-[(3-Cholamidopropyl)dimethylammonio]-1-propane-sulfonate) at a final concentration of 2 mM. HCMV polymerase is diluted in enzyme dilution buffer containing 50% glycerol, 250 mM NaCl, 10 mM HEPES (pH 7.5), 100 μg/ml BSA, and 0.01% sodium azide. The HCMV polymerase, which is expressed in recombinant baculovirus-infected SF-9 cells and purified according to literature procedures, is added at 10% (or 10 μl) of the final reaction volume, i.e., 100 μl. Compounds are diluted in 50% DMSO and 10 μl are added to each well. Control wells contain an equivalent concentration of DMSO. Unless noted otherwise, reactions are initiated via the addition of 6 nM biotinylated poly(dA)-oligo(dT) template/primer to reaction mixtures containing the enzyme, substrate, and compounds of interest. Plates are incubated in a 25 C. or 37 C. H2 O bath and terminated via the addition of 40 μl/reaction of 0.5 M EDTA (pH 8) per well. Reactions are terminated within the time-frame during which substrate incorporation is linear and varied depending upon the enzyme and conditions used, i.e., 30 min. for HCMV polymerase. Ten μl of streptavidin-SPA beads (20 mg/ml in PBS/10% glycerol) are added following termination of the reaction. Plates are incubated 10 min. at 37 C., then equilibrated to room temperature, and counted on a Packard Topcount. Linear regressions are performed and IC50 's are calculated using computer software.
A modified version of the above HCMV polymerase assay is performed as described above, but with the following changes: Compounds are diluted in 100% DMSO until final dilution into assay buffer. In the previous assay, compounds are diluted in 50% DMSO. 4.5 mM dithiotherotol (DTT) is added to the polymerase buffer.
Consider `CC(C)(C)n1cc(C(=O)NCc2ccc(Cl)cc2)c(=O)c2cc(C#CCO)ccc21` [Example 39], for which the 50% inhibitory concentration (IC50) was found to be 2200 nM.

In turn, `COCCOCCn1cc(C(=O)NCc2ccc(Cl)cc2)c(=O)c2cc(C#CCO)ccc21` [Example 42, N-(4-Chlorobenzyl)-6-(3-hydroxy-1-propynyl)-1-[2-(2-methoxyethoxy)ethyl]-4-oxo-1,4-dihydro-3-quinolinecarboxamide] returned a 50% inhibitory concentration (IC50) of 1200 nM.

Turning to `Cn1cc(C(=O)NCc2ccc(C#N)cc2)c(=O)c2cc(C#CCO)ccc21` [Example 43, N-(4-Cyanobenzyl)-6-(3-hydroxy-1-propynyl)-1-methyl-4-oxo-1,4-dihydro-3-quinolinecarboxamide], the IC50 is 9400 nM.

In turn, `Cn1cc(C(=O)NCc2ccc(Cl)cc2)c(=O)c2cc(CN(CCO)CCO)ccc21` [Example 44, 6-((Bis(2-hydroxyethyl)amino)methyl)-N-(4-chlorobenzyl)-1-1-methyl-4-oxo-1,4-dihydro-3-quinolinecarboxamide.] had an IC50 of 9300 nM.

`CN(CCO)Cc1ccc2c(c1)c(=O)c(C(=O)NCc1ccc(Cl)cc1)cn2C` [Example 45, N-(4-Chlorobenzyl)-6-(((2-hydroxyethyl)(methyl)amino)-methyl)-1-methyl-4-oxo-1,4-dihydro-3-quinolinecarboxamide] gave an IC50 of 11900 nM.

`Cn1cc(C(=O)NCc2ccc(Cl)cc2)c(=O)c2cc(CN3CCCOCC3)ccc21` [Example 46, N-(4-Chlorobenzyl)-1-methyl-6-(1,4-oxazepan-4-ylmethyl)-4-oxo-1,4-dihydro-3-quinolinecarboxamide] registered an IC50 of 5500 nM.

Consider `Cn1cc(C(=O)NCc2ccc(Cl)cc2)c(=O)c2cc(CN3CCCSCC3)ccc21` [Example 47, N-(4-Chlorobenzyl)-1-methyl-4-oxo-6-(1,4-thiazepan-4-ylmethyl)-1,4-dihydro-3-quinolinecarboxamide], for which 7200 nM corresponded to half-maximal inhibition (IC50).

In the case of `Cn1cc(C(=O)NCc2ccc(Cl)cc2)c(=O)c2cc(CN3C[C@@H]4C[C@H]3CO4)ccc21` [Example 48, N-(4-Chlorobenzyl)-1-methyl-6-(2-oxa-5-azabicyclo(2.2. 1]-hept-5-ylmethyl)-4-oxo-1,4-dihydro-3-quinolinecarboxamide], the IC50 was 13600 nM.

Compound `Cn1cc(C(=O)NCc2ccc(Cl)cc2)c(=O)c2cc(CN3CCOc4ccccc43)ccc21` [Example 49, N-(4-Chlorobenzyl)-6-(2,3-dihydro-4H-1,4-benzoxazin-4-ylmethyl)-1-methyl-4-oxo-1,4-dihydro-3-quinolinecarboxamide] came in with an IC50 of 2200 nM.

`Cn1cc(C(=O)NCc2ccc(Cl)cc2)c(=O)c2cc(CN(CCO)Cc3ccccc3)ccc21` [Example 50, 6-((Benzyl(2-hydroxyethyl)amino)methyl)-N-(4-chlorobenzyl)-1-methyl-4-oxo-1,4-dihydro-3-quinolinecarboxamide] had a 50% inhibitory concentration (IC50) of 11500 nM.

`Cn1cc(C(=O)NCc2ccc(Cl)cc2)c(=O)c2cc(CN=[N+]=[N-])ccc21` [Example 51, 6-(Azidomethyl)-N-(4-chlorobenzyl)-1-methyl-4-oxo-1,4-dihydro-3-quinolinecarboxamide] gave a 50% inhibitory concentration (IC50) of 1300 nM.

Turning to `Cn1cc(C(=O)NCc2ccc(Cl)cc2)c(=O)c2cc(CN3CCC(F)(F)CC3)ccc21` [Example 52, N-(4-chlorobenzyl)-6-((4,4-difluoro-1-piperidinyl)methyl)-1-methyl-4-oxo-1,4-dihydro-3-quinolinecarboxamide], the IC50 is 9600 nM.

In the case of `Cn1cc(C(=O)NCc2ccc(Cl)cc2)c(=O)c2cc(CN3CC=C(F)CC3)ccc21` [Example 53, N-(4-Chlorobenzyl)-6-((4-fluoro-3,6-dihydro-1(2H)-pyridinyl)methyl)-1-methyl-4-oxo-1,4-dihydro-3-quinolinecarboxamide], the IC50 was found to be 11700 nM.

`C=Cc1ccc2c(c1)c(=O)c(C(=O)NCc1ccc(Cl)cc1)cn2C` [Example 54, N-(4-Chlorobenzyl)-1-methyl-4-oxo-6-vinyl-1,4-dihydro-3-quinolinecarboxamide] returned an IC50 of 3300 nM.

For `COCCOCCOCCn1cc(C(=O)NCc2ccc(Cl)cc2)c(=O)c2cc(CN3CCOCC3)ccc21` [Example 56, N-(4-Chlorobenzyl)-1-{2-[2-(2-methoxyethoxy)ethoxy]ethyl}-6-(4-morpholinylmethyl)-4-oxo-1,4-dihydro-3-quinolinecarboxamide], 3000 nM corresponded to half-maximal inhibition (IC50).

On to `O=C(NCc1ccc(Cl)cc1)c1cn(CCOCCO)c2ccc(CN3CCOCC3)cc2c1=O` [Example 57, N-(4-Chlorobenzyl)-1-[2-(2-hydroxyethoxy)ethyl]-6-(4-morpholinylmethyl)-4-oxo-1,4-dihydro-3-quinolinecarboxamide], for which the IC50 turned out to be 1200 nM.

`CCOCCOCCn1cc(C(=O)NCc2ccc(Cl)cc2)c(=O)c2cc(CN3CCOCC3)ccc21` [Example 58, N-(4-Chlorobenzyl)-1-[2-(2-ethoxyethoxy)ethyl]-6-(4-morpholinylmethyl)-4-oxo-1,4-dihydro-3-quinolinecarboxamide] displayed a half-inhibitory concentration (IC50) of 1400 nM.

Consider `C#CCn1cc(C(=O)NCc2ccc(Cl)cc2)c(=O)c2cc(CN3CCOCC3)ccc21` [Example 59, N-(4-Chlorobenzyl)-6-(4-morpholinylmethyl)-4-oxo-1-(2-propynyl)-1,4-dihydro-3-quinolinecarboxamide], for which inhibition was half-maximal at 1900 nM (IC50).

Turning to `CCSCCn1cc(C(=O)NCc2ccc(Cl)cc2)c(=O)c2cc(CN3CCOCC3)ccc21` [Example 60, N-(4-Chlorobenzyl)-1-[2-(ethylsulfanyl)ethyl]-6-(4-morpholinylmethyl)-4-oxo-1,4-dihydro-3-quinolinecarboxamide], the IC50 stood at 1100 nM.

As to `CN(Cc1ccc2c(c1)c(=O)c(C(=O)NCc1ccc(Cl)cc1)cn2C)CC(O)c1ccccc1` (stereo not drawn) [Example 63, N-(4-Chlorobenzyl)-6-{[(2-hydroxy-2-phenylethyl)(methyl)-amino]methyl}-1-methyl-4-oxo-1,4-dihydro-3quinolinecarboxamide], the half-maximal inhibitory concentration (IC50) amounted to 1300 nM.

For `O=C(NCc1ccc(Cl)cc1)c1cn(CCN(CCO)CCO)c2ccc(CN3CCOCC3)cc2c1=O` [Example 64], the IC50 was 950 nM.

In turn, `O=C(NCc1ccc(Cl)cc1)c1cn(CCCSCCCO)c2ccc(CN3CCOCC3)cc2c1=O` [Example 66, N-(4-Chlorobenzyl)-1-{3-[(3-hydroxypropyl)sulfanyl]propyl}-6-(4-morpholinylmethyl)-4-oxo-1,4-dihydro-3-quinolinecarboxamide] had an IC50 of 1100 nM.

As to `CS(=O)(=O)CCCn1cc(C(=O)NCc2ccc(Cl)cc2)c(=O)c2cc(CN3CCOCC3)ccc21` [Example 67, N-(4-Chlorobenzyl)-1-[3-(methylsulfonyl)propyl]-6-(4-morpholinylmethyl)-4-oxo-1,4dihydro-3-quinolinecarboxamide], the concentration for half-maximal inhibition (IC50) was determined as 700 nM.

Consider `CC[S+]([O-])CCn1cc(C(=O)NCc2ccc(Cl)cc2)c(=O)c2cc(CN3CCOCC3)ccc21` (stereo not drawn) [Example 68, N-(4-Chlorobenzyl)-1-[2-(ethylsulfinyl)ethyl]-6-(4-morpholinylmethyl)-4-oxo-1,4-dihydro-3-quinolinecarboxamide], for which the IC50 was found to be 930 nM.

Regarding `CCS(=O)(=O)CCn1cc(C(=O)NCc2ccc(Cl)cc2)c(=O)c2cc(CN3CCOCC3)ccc21` [Example 69, N-(4-Chlorobenzyl)-1-[2-(ethylsulfonyl)ethyl]-6-(4-morpholinylmethyl)-4-oxo-1,4-dihydro-3-quinolinecarboxamide], half-maximal inhibition (IC50) required 900 nM.

`O=C(NCc1ccc(Cl)cc1)c1cn(CCC[S+]([O-])CCCO)c2ccc(CN3CCOCC3)cc2c1=O` (stereo not drawn) [Example 70] gave an IC50 of 870 nM.

For the compound `O=C(NCc1ccc(Cl)cc1)c1cn(CCCS(=O)(=O)CCCO)c2ccc(CN3CCOCC3)cc2c1=O` [Example 71, N-(4-Chlorobenzyl)-1-(3-[(3-hydroxypropyl)sulfonyl]propyl)-6-(4-morpholinylmethyl)-4-oxo-1,4-dihydro-3-quinolinecarboxamide], the IC50 amounted to 800 nM.

For `O=C(NCc1ccc(Cl)cc1)c1cn(CCSc2ccccc2)c2ccc(CN3CCOCC3)cc2c1=O` [Example 72], 3000 nM corresponded to half-maximal inhibition (IC50).

As for `CSCn1cc(C(=O)NCc2ccc(Cl)cc2)c(=O)c2cc(CN3CCOCC3)ccc21` [Example 73], the IC50 was found to be 1100 nM.

The compound `Cn1cc(C(=O)NCc2ccc(Cl)cc2)c(=O)c2cc(CN3CC(O)(O)C3)ccc21` [Example 78, N-(4-Chlorobenzyl)-6-[(3,3-dihydroxy-1-azetidinyl)methyl]-1-methyl-4-oxo-1,4-dihydro-3-quinolinecarboxamide] gave a half-inhibitory concentration (IC50) of 270 nM.
